pIC50: −log10 of the molar value.
How the values were obtained:
[1] = molecular target: 72 kDa type IV collagenase (Homo sapiens, UniProt P08253)
[2] = molecular target: Matrix metalloproteinase-9 (Homo sapiens, UniProt P14780)
Interstitial collagenase = molecular target: T1, Interstitial collagenase (Homo sapiens, UniProt P03956); experiment: Inhibition of MMP1
T1 sequence (P03956 whole entry): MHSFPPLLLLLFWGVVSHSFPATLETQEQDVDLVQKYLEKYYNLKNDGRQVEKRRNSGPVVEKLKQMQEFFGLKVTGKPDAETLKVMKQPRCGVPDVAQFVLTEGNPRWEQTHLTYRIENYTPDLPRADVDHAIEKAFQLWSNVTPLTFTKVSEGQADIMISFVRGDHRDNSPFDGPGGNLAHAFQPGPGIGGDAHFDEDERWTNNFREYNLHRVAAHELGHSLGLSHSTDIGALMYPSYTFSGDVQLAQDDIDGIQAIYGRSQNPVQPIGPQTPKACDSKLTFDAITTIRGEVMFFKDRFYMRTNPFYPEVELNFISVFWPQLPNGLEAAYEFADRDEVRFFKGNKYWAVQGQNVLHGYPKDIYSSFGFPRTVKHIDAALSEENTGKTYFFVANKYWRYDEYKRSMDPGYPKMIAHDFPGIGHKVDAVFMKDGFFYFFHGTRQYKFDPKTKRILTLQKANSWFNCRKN

Stromelysin-1 = Stromelysin-1 (Homo sapiens, UniProt P08254); experiment: Inhibition of MMP3
Chain of Stromelysin-1 (P08254 whole entry): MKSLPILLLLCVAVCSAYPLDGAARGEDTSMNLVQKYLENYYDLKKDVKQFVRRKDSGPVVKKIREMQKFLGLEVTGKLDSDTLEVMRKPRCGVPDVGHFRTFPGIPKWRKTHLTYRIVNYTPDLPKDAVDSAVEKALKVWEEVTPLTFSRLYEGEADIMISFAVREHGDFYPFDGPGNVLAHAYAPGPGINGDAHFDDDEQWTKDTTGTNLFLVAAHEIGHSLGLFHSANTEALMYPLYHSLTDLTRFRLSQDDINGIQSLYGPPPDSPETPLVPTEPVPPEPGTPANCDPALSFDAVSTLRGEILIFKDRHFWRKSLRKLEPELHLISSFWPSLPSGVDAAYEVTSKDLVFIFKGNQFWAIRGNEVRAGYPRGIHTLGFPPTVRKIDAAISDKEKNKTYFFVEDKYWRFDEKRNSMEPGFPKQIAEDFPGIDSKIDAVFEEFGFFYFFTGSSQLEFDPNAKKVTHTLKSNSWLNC

Collagenase 3 = Collagenase 3 (Homo sapiens, UniProt P45452)
Rattus norvegicus [3] = experiment: (§1) Apparent elimination half life in rat at 0.5 mg/kg, iv; assay type: ADME, organism-based; parameters: dose 0.5 mg/kg, route intravenous; settings: in vivo
[4] = AUC in rat at 0.5 mg/kg, iv; assay type: ADME, organism-based; parameters: dose 0.5 mg/kg, route intravenous; settings: plasma
Rattus norvegicus [5] = experiment: (§2) Volume of distribution in rat at 0.5 mg/kg, iv; assay type: ADME, organism-based; parameters: dose 0.5 mg/kg, route intravenous; settings: in vivo
[6] = Metabolic stability in human liver microsomes; assay type: ADME, Microsome
[7] = Initial concentration in rat at 0.5 mg/kg, iv; assay type: ADME, organism-based; parameters: dose 0.5 mg/kg, route intravenous; settings: in vivo
[8] = as §1; assay type: ADME, organism-based; parameters: dose 0.5 mg/kg, route intravenous; settings: in vivo
[9] = as §2; assay type: ADME, organism-based; parameters: dose 0.5 mg/kg, route intravenous; settings: in vivo, read-out: Vss
[10] = Clearance in rat at 0.5 mg/kg, iv; assay type: ADME, organism-based; parameters: dose 0.5 mg/kg, route intravenous; settings: in vivo

Chain of Matrix metalloproteinase-9 (P14780 whole entry): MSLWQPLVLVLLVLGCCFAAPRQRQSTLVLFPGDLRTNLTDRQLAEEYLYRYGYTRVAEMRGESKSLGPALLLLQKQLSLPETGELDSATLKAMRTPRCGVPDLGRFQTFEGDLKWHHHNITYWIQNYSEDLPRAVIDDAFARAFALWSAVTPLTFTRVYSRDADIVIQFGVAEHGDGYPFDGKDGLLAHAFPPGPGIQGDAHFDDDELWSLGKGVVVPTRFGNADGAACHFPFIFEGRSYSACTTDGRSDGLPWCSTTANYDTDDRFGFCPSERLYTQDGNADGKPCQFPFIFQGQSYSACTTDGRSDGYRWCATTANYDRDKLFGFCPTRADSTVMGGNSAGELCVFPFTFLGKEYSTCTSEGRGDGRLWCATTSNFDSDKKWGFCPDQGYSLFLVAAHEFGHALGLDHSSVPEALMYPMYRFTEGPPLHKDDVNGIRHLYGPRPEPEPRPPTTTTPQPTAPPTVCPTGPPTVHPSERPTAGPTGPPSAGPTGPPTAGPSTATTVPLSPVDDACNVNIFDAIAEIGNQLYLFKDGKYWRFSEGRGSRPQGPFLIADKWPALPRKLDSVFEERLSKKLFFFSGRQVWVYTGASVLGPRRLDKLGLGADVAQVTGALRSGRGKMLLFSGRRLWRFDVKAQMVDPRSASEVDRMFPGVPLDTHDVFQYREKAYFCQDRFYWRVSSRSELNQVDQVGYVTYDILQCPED
Chain of 72 kDa type IV collagenase (P08253 whole entry): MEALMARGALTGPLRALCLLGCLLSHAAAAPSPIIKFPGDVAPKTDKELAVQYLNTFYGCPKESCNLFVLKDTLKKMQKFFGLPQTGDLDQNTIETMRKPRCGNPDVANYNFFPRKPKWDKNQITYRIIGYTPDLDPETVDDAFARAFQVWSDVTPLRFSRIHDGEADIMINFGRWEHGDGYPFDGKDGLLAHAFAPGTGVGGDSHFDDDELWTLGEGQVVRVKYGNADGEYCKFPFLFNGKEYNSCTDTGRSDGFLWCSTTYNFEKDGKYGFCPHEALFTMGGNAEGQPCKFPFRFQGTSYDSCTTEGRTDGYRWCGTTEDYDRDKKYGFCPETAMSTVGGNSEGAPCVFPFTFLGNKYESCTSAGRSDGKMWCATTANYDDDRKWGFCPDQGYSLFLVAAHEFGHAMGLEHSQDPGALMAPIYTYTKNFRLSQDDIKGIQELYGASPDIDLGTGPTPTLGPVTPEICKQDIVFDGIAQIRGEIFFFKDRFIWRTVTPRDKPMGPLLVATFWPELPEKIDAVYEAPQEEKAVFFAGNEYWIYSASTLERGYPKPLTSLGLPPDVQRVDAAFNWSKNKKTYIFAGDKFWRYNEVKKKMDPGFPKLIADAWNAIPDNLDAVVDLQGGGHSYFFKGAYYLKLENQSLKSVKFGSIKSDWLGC

Cc1ccc(C#Cc2ccc([S+]([O-])C(CCN3C(=O)c4ccccc4C3=O)C(=O)O)cc2)cc1 (centres undefined)
pIC50 [1]: 8.82

COc1cccc(C#Cc2ccc(SC(CCN3C(=O)c4ccccc4C3=O)C(=O)O)cc2)c1 (centres undefined)
pIC50 [1]: 8.40

N#Cc1ccc(N2CCN(c3ccc(S(=O)(=O)C(CCN4C(=O)c5ccccc5C4=O)C(=O)O)cc3)CC2)cc1 (centres undefined)
pIC50 [1]: 8.17

COc1ccc(-c2ccc(S(=O)(=O)C(CCN3C(=O)c4ccccc4C3=O)C(=O)O)cc2)cc1 (centres undefined)
pIC50 [1]: 9.08

CC(C)c1ccc(C#Cc2ccc(SC(CCN3C(=O)c4ccccc4C3=O)C(=O)O)cc2)cc1 (centres undefined)
pIC50 [1]: 8.77

O=C(O)C(CCN1C(=O)c2ccccc2C1=O)S(=O)(=O)c1ccc(Oc2ccc(OC(F)(F)F)cc2)cc1 (centres undefined)
pIC50 [1]: 7.72

O=C(O)C(CCN1C(=O)c2ccccc2C1=O)S(=O)(=O)c1ccc(N2CC=C(c3ccc(Cl)cc3)CC2)cc1 (centres undefined)
pIC50 [1]: 7.92

O=C(O)C(CCN1Cc2ccccc2C1=O)S(=O)(=O)c1ccc(-c2ccc(Cl)cc2)cc1 (centres undefined)
pIC50 [1]: 8.07 | pIC50 [2]: 7.02

CCCCc1ccc(C#Cc2ccc(SC(CCN3C(=O)c4ccccc4C3=O)C(=O)O)cc2)cc1 (centres undefined)
pIC50 [1]: 8.64

N#Cc1ccc(-c2ccc(S(=O)(=O)C(CCN3C(=O)c4ccccc4C3=O)C(=O)O)cc2)cc1 (centres undefined)
pIC50 [1]: 8.52

O=C(O)C(CN1C(=O)c2ccccc2C1=O)S(=O)(=O)c1ccc(-c2ccc(Cl)cc2)cc1 (centres undefined)
pIC50 [1]: 6.25 | pIC50 [2]: 5.98

CSc1ccc(-c2ccc(S(=O)(=O)C(CCN3C(=O)c4ccccc4C3=O)C(=O)O)cc2)cc1 (centres undefined)
pIC50 [1]: 9.13

Cc1ccc(C#Cc2ccc(SC(CCN3C(=O)c4ccccc4C3=O)C(=O)O)cc2)cc1 (centres undefined)
pIC50 [1]: 7.48

O=C(O)C(CCN1C(=O)c2ccccc2C1=O)Sc1ccc(C#Cc2ccc(Cl)cc2)cc1 (centres undefined)
pIC50 [1]: 8.72

O=C(O)C(CCSc1ccccc1)S(=O)(=O)c1ccc(-c2ccc(Cl)cc2)cc1 (centres undefined)
pIC50 [1]: 6.53 | pIC50 [2]: < 5.00

O=C(O)C(CCN1C(=O)c2ccccc2C1=O)S(=O)(=O)c1ccc(-c2nc3ccc(F)cc3[nH]2)cc1 (centres undefined)
pIC50 (Interstitial collagenase): < 6.00 | pIC50 (Stromelysin-1): 7.47 | pIC50 [1]: 9.15 | pIC50 (Collagenase 3): 9.10

Cc1ccc(C#Cc2ccc(S(=O)(=O)C(CCN3C(=O)c4ccccc4C3=O)C(=O)O)cc2)cc1 (centres undefined)
pIC50 (Interstitial collagenase): < 6.00 | pIC50 (Stromelysin-1): 7.55 | pIC50 [1]: 9.15 | pIC50 (Collagenase 3): 8.85

O=C(O)C(CCN1C(=O)c2ccccc2C1=O)S(=O)(=O)c1ccc(-c2ccc(Cl)cc2)cc1 (centres undefined)
T1/2 (Rattus norvegicus [3]): 84 min | AUC [4]: 18200 ng·h/mL | Vss (Rattus norvegicus [5]): 0.4 L/kg | half-life [6]: 230 min | C0 [7]: 41.4 µM | pIC50 [1]: 8.74

CCCc1ccc(C#Cc2ccc(SC(CCN3C(=O)c4ccccc4C3=O)C(=O)O)cc2)cc1 (centres undefined)
pIC50 [1]: 8.96

COc1ccc(C(=O)Cc2ccc(SC(CCN3C(=O)c4ccccc4C3=O)C(=O)O)cc2)cc1 (centres undefined)
pIC50 [1]: 7.27

O=C(O)C(CCN1C(=O)c2ccccc2C1=O)Sc1ccc(C#Cc2ccc(OC(F)(F)F)cc2)cc1 (centres undefined)
pIC50 [1]: 8.89

CCCC(C(=O)O)S(=O)(=O)c1ccc(-c2ccc(Cl)cc2)cc1 (centres undefined)
pIC50 [1]: 6.10 | pIC50 [2]: 5.00

O=C(O)C(CCN1C(=O)c2ccccc2C1=O)S(=O)(=O)c1ccc(-c2ccc(F)cc2)cc1 (centres undefined)
pIC50 [1]: 8.19

CCc1ccc(C#Cc2ccc(SC(CCN3C(=O)c4ccccc4C3=O)C(=O)O)cc2)cc1 (centres undefined)
pIC50 [1]: 8.89

O=C(O)C(CCCN1C(=O)c2ccccc2C1=O)S(=O)(=O)c1ccc(-c2ccc(Cl)cc2)cc1 (centres undefined)
pIC50 [1]: 6.84 | pIC50 [2]: 5.67

CC(CCN1C(=O)c2ccccc2C1=O)(C(=O)O)S(=O)(=O)c1ccc(-c2ccc(Cl)cc2)cc1 (centres undefined)
pIC50 [1]: 7.28

O=C(NO)C(CCN1C(=O)c2ccccc2C1=O)S(=O)(=O)c1ccc(-c2ccc(Cl)cc2)cc1 (centres undefined)
half-life [8]: 58.8 min | AUC [4]: 2940 ng·h/mL | Vd [9]: 0.1 L/kg | clearance [10]: 2.9 mL/min/kg | half-life [6]: 12 min | C0 [7]: 13.9 µM | pIC50 [1]: 9.21 | pIC50 [2]: 8.85

CC(C)c1ccc(-c2ccc(S(=O)(=O)C(CCN3C(=O)c4ccccc4C3=O)C(=O)O)cc2)cc1 (centres undefined)
pIC50 [1]: 9.01

CC(CCN1Cc2ccccc2C1)(C(=O)O)S(=O)(=O)c1ccc(-c2ccc(Cl)cc2)cc1 (centres undefined)
pIC50 [1]: 5.51 | pIC50 [2]: < 5.00

Cc1ccc(-c2ccc(S(=O)(=O)C(CCN3C(=O)c4ccccc4C3=O)C(=O)O)cc2)cc1 (centres undefined)
pIC50 [1]: 8.92
